# Measured values taken from patent US6664231B1, “Anti-fungal peptides” (priority 1993, dated 2003).
# Square brackets hold non-standard residues; d marks the D form. Peptide text beside a SMILES is read from it. Phe(4-NH2) = Nc1ccc(C[C@H](N)C(=O)O)cc1; NMeL = CN[C@@H](CC(C)C)C(=O)O; NMeV = CN[C@H](C(=O)O)C(C)C; Dab = NCC[C@H](N)C(=O)O; Sar = CNCC(=O)O
# Test system: C. albicans (CA-1, Strain SLU-1)
# Test: Radial diffusion assay
# Type: cell-based, Candida albicans
# Settings: pmoles of peptide added to well to achieve a 30 mm^2 zone, PROBIT analysis, crude or purified (P′) peptide
# Method in brief: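 Peptides, serially diluted 2-fold in D-PBS (top ~1 mg/mL), diffused 3 h at 37° C into pH 7.4 phosphate-buffered agarose seeded with 1×10^6 CFU/mL yeast, before overnight growth under a 6% Sabouraud overlayer. Net inhibition zones measured after Coomassie staining; PROBIT fit of log pmol vs area gave pmol for 30 mm^2.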
Compound,C. albicans pmol/30 mm^2 zone,further results
CC[C@H](C)[C@H](NC(=O)[C@H](CC(C)C)NC(=O)CN(C)C(=O)CNC(=O)[C@@H](NC(=O)[C@H](CCCCN)NC(=O)[C@H](CO)NC(=O)[C@@H](N)CCCCN)C(C)C)C(=O)N[C@@H](CCC(N)=O)C(=O)N[C@@H](CC(C)C)C(=O)N[C@@H](Cc1ccccc1)C(=O)N[C@@H](Cc1c[nH]cn1)C(=O)N[C@@H](CCCCN)C(=O)N[C@@H](CCCCN)C(N)=O [XMP.259] (H-KSKVG[Sar]LIQLFHKK-NH2),"2,117 pmol/30 mm^2 zone",–
CC[C@H](C)[C@H](NC(=O)[C@H](CC(C)C)NC(=O)[C@H](C(C)C)N(C)C(=O)CNC(=O)[C@@H](NC(=O)[C@H](CCCCN)NC(=O)[C@H](CO)NC(=O)[C@@H](N)CCCCN)C(C)C)C(=O)N[C@@H](CCC(N)=O)C(=O)N[C@@H](CC(C)C)C(=O)N[C@@H](Cc1ccccc1)C(=O)N[C@@H](Cc1c[nH]cn1)C(=O)N[C@@H](CCCCN)C(=O)N[C@@H](CCCCN)C(N)=O [XMP.260] (H-KSKVG[NMeV]LIQLFHKK-NH2),742 pmol/30 mm^2 zone,–
CC[C@H](C)[C@H](NC(=O)[C@H](CC(C)C)NC(=O)[C@H](CC(C)C)N(C)C(=O)CNC(=O)[C@@H](NC(=O)[C@H](CCCCN)NC(=O)[C@H](CO)NC(=O)[C@@H](N)CCCCN)C(C)C)C(=O)N[C@@H](CCC(N)=O)C(=O)N[C@@H](CC(C)C)C(=O)N[C@@H](Cc1ccccc1)C(=O)N[C@@H](Cc1c[nH]cn1)C(=O)N[C@@H](CCCCN)C(=O)N[C@@H](CCCCN)C(N)=O [XMP.261] (H-KSKVG[NMeL]LIQLFHKK-NH2),867 pmol/30 mm^2 zone,–
CC[C@H](C)[C@H](NC(=O)[C@H](CC(C)C)NC(=O)[C@H](Cc1c[nH]c2ccccc12)NC(=O)[C@@H](N)CCCCN)C(=O)N[C@@H](CCC(N)=O)C(=O)N[C@@H](CC(C)C)C(=O)N[C@@H](Cc1ccccc1)C(=O)N[C@@H](Cc1c[nH]cn1)C(=O)N[C@@H](CCCCN)C(=O)N[C@@H](CCCCN)C(N)=O [XMP.293],"1,156 pmol/30 mm^2 zone",C. albicans pmol/30 mm^2 zone (listed as XMP.293P′): 215 pmol/30 mm^2 zone
CC[C@H](C)[C@H](NC(=O)[C@H](CC(C)C)NC(=O)[C@H](Cc1c[nH]c2ccccc12)NC(=O)[C@@H](N)CCCCN)C(=O)N[C@@H](CCC(N)=O)C(=O)N[C@@H](CC(C)C)C(=O)N[C@@H](Cc1ccccc1)C(=O)N[C@@H](Cc1c[nH]cn1)C(=O)N[C@@H](CCCCN)C(N)=O [XMP.297],"1,817 pmol/30 mm^2 zone",C. albicans pmol/30 mm^2 zone (listed as XMP.297P′): 564 pmol/30 mm^2 zone
CC[C@H](C)[C@H](NC(=O)[C@H](CC(C)C)NC(=O)[C@@H](N)Cc1c[nH]c2ccccc12)C(=O)N[C@@H](CCC(N)=O)C(=O)N[C@@H](CC(C)C)C(=O)N[C@@H](Cc1ccccc1)C(=O)N[C@@H](Cc1c[nH]cn1)C(=O)N[C@@H](CCCCN)C(=O)N[C@@H](CCCCN)C(N)=O [XMP.298],"2,628 pmol/30 mm^2 zone","C. albicans pmol/30 mm^2 zone (listed as XMP.298P′): 1,106 pmol/30 mm^2 zone"
CC[C@H](C)[C@H](NC(=O)[C@H](CC(C)C)NC(=O)[C@@H](N)Cc1c[nH]c2ccccc12)C(=O)N[C@@H](CCC(N)=O)C(=O)N[C@@H](CC(C)C)C(=O)N[C@@H](Cc1ccccc1)C(=O)N[C@@H](Cc1c[nH]cn1)C(=O)N[C@@H](CCCCN)C(N)=O [XMP.303],">4,694 pmol/30 mm^2 zone","C. albicans pmol/30 mm^2 zone (listed as XMP.303P′): 1,307 pmol/30 mm^2 zone"
CC[C@H](C)[C@H](NC(=O)[C@H](CC(C)C)NC(=O)[C@H](Cc1c[nH]c2ccccc12)NC(=O)[C@@H](N)CCCCN)C(=O)N[C@@H](CCC(N)=O)C(=O)N[C@@H](CC(C)C)C(=O)N[C@@H](CCCCN)C(N)=O [XMP.323],">4,627 pmol/30 mm^2 zone",–
CC[C@H](C)[C@H](NC(=O)[C@H](CC(C)C)NC(=O)[C@H](Cc1c[nH]c2ccccc12)NC(=O)[C@@H](N)CCCCN)C(=O)N[C@@H](CCC(N)=O)C(=O)N[C@@H](CC(C)C)C(=O)N[C@@H](CCCCN)C(=O)N[C@@H](CCCCN)C(N)=O [XMP.324],894 pmol/30 mm^2 zone,–
CC[C@H](C)[C@H](NC(=O)[C@H](CC(C)C)NC(=O)[C@H](Cc1c[nH]c2ccccc12)NC(=O)[C@H](CCCCN)NC(=O)[C@@H](N)CCCCN)C(=O)N[C@@H](CCC(N)=O)C(=O)N[C@@H](CC(C)C)C(=O)N[C@@H](CCCCN)C(N)=O [XMP.326],"2,182 pmol/30 mm^2 zone",–
CC[C@H](C)[C@H](NC(=O)[C@H](CC(C)C)NC(=O)[C@H](Cc1c[nH]c2ccccc12)NC(=O)[C@H](CCN)NC(=O)[C@@H](N)CCN)C(=O)N[C@@H](CCC(N)=O)C(=O)N[C@@H](CC(C)C)C(=O)N[C@@H](CCN)C(=O)N[C@@H](CCN)C(N)=O [XMP.339] (H-[Dab][Dab]WLIQL[Dab][Dab]-NH2),"2,878 pmol/30 mm^2 zone","C. albicans pmol/30 mm^2 zone (listed as XMP.339P′): 2,599 pmol/30 mm^2 zone"
CC[C@H](C)[C@H](NC(=O)[C@H](CC(C)C)NC(=O)[C@H](Cc1c[nH]c2ccccc12)NC(=O)[C@H](Cc1ccc(N)cc1)NC(=O)[C@@H](N)Cc1ccc(N)cc1)C(=O)N[C@@H](CCC(N)=O)C(=O)N[C@@H](CC(C)C)C(=O)N[C@@H](Cc1ccc(N)cc1)C(=O)N[C@@H](Cc1ccc(N)cc1)C(N)=O [XMP.340] (H-[Phe(4-NH2)][Phe(4-NH2)]WLIQL[Phe(4-NH2)][Phe(4-NH2)]-NH2),b (No detectable activity up to 5 μg/well),–
CC[C@H](C)[C@H](NC(=O)[C@H](CC(C)C)NC(=O)[C@H](Cc1ccc(N)cc1)NC(=O)[C@H](CCCCN)NC(=O)[C@@H](N)CCCCN)C(=O)N[C@@H](CCC(N)=O)C(=O)N[C@@H](CC(C)C)C(=O)N[C@@H](CCCCN)C(=O)N[C@@H](CCCCN)C(N)=O [XMP.346] (H-KK[Phe(4-NH2)]LIQLKK-NH2),640 pmol/30 mm^2 zone,–
Ac-PWLIQLFHKK-OH [XMP.354],"6,361 pmol/30 mm^2 zone",–
H-ASKVGWLIQLFHKK-NH2 [XMP.31],426 pmol/30 mm^2 zone,–
H-GWLIQLFHKKIESALRNKMNS-NH2 [XMP.55],>2666 pmol/30 mm^2 zone,–
H-IQLFHK-NH2 [XMP.318],b (No detectable activity up to 5 μg/well),–
H-IQLFHKK-NH2 [XMP.311],b (No detectable activity up to 5 μg/well),–
H-KAKVGWLIQLFHKK-NH2 [XMP.32],294 pmol/30 mm^2 zone,–
H-KKKWLIQLKKK-NH2 [XMP.350],129 pmol/30 mm^2 zone,–
H-KKWLIQL-NH2 [XMP.325],"4,135 pmol/30 mm^2 zone",–
H-KSAVGWLIQLFHKK-NH2 [XMP.33],603 pmol/30 mm^2 zone,–
H-KSKAGWLIQLFHKK-NH2 [XMP.34],319 pmol/30 mm^2 zone,–

Compound,C. albicans pmol/30 mm^2 zone,further results
H-KSKVAWLIQLFHKK-NH2 [XMP.35],442 pmol/30 mm^2 zone,–
H-KSKVFWLIQLFHKK-NH2 [XMP.95],>1398 pmol/30 mm^2 zone,–
H-KSKVGGLIQLFHKK-NH2 [XMP.249],"1,242 pmol/30 mm^2 zone",–
H-KSKVGILIQLFHKK-NH2 [XMP.251],"1,289 pmol/30 mm^2 zone",–
H-KSKVGKLIQLFHKK-NH2 [XMP.135],428 pmol/30 mm^2 zone,–
H-KSKVGLLIQLFHKK-NH2 [XMP.250],536 pmol/30 mm^2 zone,–
H-KSKVGWLAQLFHKK-NH2 [XMP.38],391 pmol/30 mm^2 zone,–
H-KSKVGWLIALFHKK-NH2 [XMP.39],1792 pmol/30 mm^2 zone,–
H-KSKVGWLIDLFHKK-NH2 [XMP.264],879 pmol/30 mm^2 zone,–
H-KSKVGWLIELFHKK-NH2 [XMP.263],"1,197 pmol/30 mm^2 zone",–
H-KSKVGWLIFLFHKK-NH2 [XMP.91],>3844 pmol/30 mm^2 zone,–
H-KSKVGWLIFLFHKKKSKVGWLIFLFHKK-NH2 [XMP.275],b (No detectable activity up to 5 μg/well),–
H-KSKVGWLIFLFHKKKSKVGWLIQLFHKK-NH2 [XMP.273],">2,120 pmol/30 mm^2 zone",–
H-KSKVGWLIKLFHKK-NH2 [XMP.92],299 pmol/30 mm^2 zone,–
H-KSKVGWLILLFHKK-NH2 [XMP.86],>2048 pmol/30 mm^2 zone,–
H-KSKVGWLILLFHKKKSKVGWLILLFHKK-NH2 [XMP.272],">2,599 pmol/30 mm^2 zone",–
H-KSKVGWLILLFHKKKSKVGWLIQLFHKK-NH2 [XMP.270],>722 pmol/30 mm^2 zone,–
H-KSKVGWLILLWHKK-NH2 [XMP.241],">2,161 pmol/30 mm^2 zone",–
H-KSKVGWLINLFHKK-NH2 [XMP.262],984 pmol/30 mm^2 zone,–
H-KSKVGWLIQAFHKK-NH2 [XMP.40],253 pmol/30 mm^2 zone,–
H-KSKVGWLIQFFHKK-NH2 [XMP.113],947 pmol/30 mm^2 zone,–
H-KSKVGWLIQLAHKK-NH2 [XMP.41],734 pmol/30 mm^2 zone,–
